Reference: patent US7179926B2, “Aryloxyalkylamine NK-1/SSRI inhibitors” (Bristol-Myers Squibb Company, priority 2004, dated 2007)

What was measured:
[1] = target: T1, human serotonin transporters (Homo sapiens, UniProt P31645); assay: Serotonin transporter binding assay ([3H]-citalopram competition, HEK-hSERT cell membranes); conditions: 1 nM [3H]-citalopram, 1 hr at 25° C., read-out: SERT IC50
T1 construct: expressed in transfected cells
Protocol: Serotonin transporter binding assay. HEK-293 cells that stably express human serotonin transporters (HEK-hSERT cells) were grown at 37° C. in 5% CO2 as a monolayer in medium consisting of EMEM supplemented with 10% fetal bovine serum and G418 sulfate (500 μg/ml). To prepare membranes for radioligand binding experiments, cells were rinsed twice with phosphate-buffered saline (138 mM NaCl, 4.1 mM KCl, 5.1 mM Na2PO4, 1.5 mM KH2PO4, 11.1 mM glucose, pH 7.4). Cells were transferred from plates to polypropylene tubes (16×100 mm), centrifuged at 1,200×g for 5 min and were frozen at −80° C. until assay. Following centrifugation, pellets were resuspended by homogenization in buffer consisting of 50 mM Tris (pH 7.7 at 25° C.), 120 mM NaCl and 5 mM KCl and then centrifuged at 32,000×g for 10 min. Following centrifugation, supernatants were discarded and pellets were resuspended in buffer consisting of 50 mM Tris (pH 7.4 at 25° C.), 150 mM NaCl and 5 mM KCl. Membrane homogenates (200 μl/plate) were incubated with 1 nM [^3H]-citalopram (specific activity=85 Ci/mmol) and increasing concentrations of test compounds for 1 hr at 25° C. in a total volume of 250 μl. The assay buffer consisted of 50 mM Tris (pH 7.4 at 25° C.), 120 mM NaCl and 5 mM KCl (pH 7.4 with conc. HCl). Plates were incubated for 1 hr at 25° C., then filtered through 0.5% PEI treated Whatman GF/B filters using a Brandel cell harvester. Filters were washed three times with 3 ml of ice-cold tris wash buffer. Non-specific binding was defined with 10 μM fluoxetine. Amount of radioligand bound in the presence and absence of competitor was analyzed by plotting (−)log drug concentration versus the amount of radioligand specifically bound. The midpoint of the displacement curve (IC50, nM), signifies the potency. Ki values can be calculated using the method of Cheng and Prusoff (Cheng and Prusoff, Biochemical Pharmacology, Vol 22, pp. 3099–3108, Pergamon Press (1973)).

[2] = target: T2, neurokinin-1 (NK-1) receptor (Homo sapiens, UniProt P25103); assay: NK-1 Binding assay ([125I] Substance P competition, U373 cell membranes); conditions: Bolton Hunter labeled [125I] Substance P, 30 min at 20° C.
T2 construct: endogenously expresses the neurokinin-1 (NK-1) receptor; endogenous in cells; host or cells: U373 human glioblastoma-astrocytoma cells (membranes)
Protocol: NK-1 Binding assay. U373 cells, a human glioblastoma-astrocytoma cell line that endogenously expresses the neurokinin-1 (NK-1) receptor, were grown in a monolayer culture at 37° C. in 5% CO2 and fed with Minimum Essential Medium (MEM) supplemented with 10% fetal bovine serum. Membranes were prepared as follows: Cells were washed twice with ice-cold phosphate-buffered saline (pH 7.4) and then incubated for 5–10 minutes with ice-cold 10 mM Tris buffer (pH 7.4) containing 5 mM EDTA. Cells were removed from plates, homogenized, and centrifuged at 32,000×g for 20 minutes. The resulting supernatant was discarded, and the pellet resuspended by homogenization in 50 mM Tris buffer (pH 7.4) containing 1 mM EDTA and centrifuged at 32,000×g for 20 minutes. The resulting supernatant was discarded, and the pellet resuspended by homogenization in NK-1 binding assay buffer (50 mM Tris-HCL (pH 7.4), 3 mM MnCl2, 200 μg/ml BSA, 5 μg/ml chymostatin, 40 μg/ml bacitracin and 4 μg/ml leupeptin).
On the day of an experiment the membrane preparation was thawed, homogenized and diluted with NK-1 binding assay buffer to the appropriate concentration. Competition binding assays were performed in 96 well plate format by incubating membranes (5–10 μg/well) with Bolton Hunter labeled [^125I] Substance P, at a concentration of […], and concentrations of drugs ranging from 10000 to 0.01 nM. Samples were incubated for 30 min at 20° C. then filtered through GF/B glass fiber filters (pretreated with 1% polyethyleneimine and 0.3% Triton X-100) using a Brandel cell harvester. The filters were then washed with 10 ml ice cold 50 mM Tris-HCL (pH 7.4) containing 3 mM MgCl2. Non-specific was defined in the presence of 2 μM L-733,060 (a non-peptide NK-1 antagonist). The amount of radioligand bound in the presence and absence of competitor was analyzed by plotting (−)log drug concentration versus the amount of radioligand specifically bound. The midpoint of the displacement curve (IC50, nM), signifies the potency. Ki values can be calculated using the method of Cheng and Prusoff (Cheng and Prusoff, Biochemical Pharmacology, Vol 22, pp. 3099–3108, Pergamon Press (1973)).

T1 sequence (P31645 whole entry): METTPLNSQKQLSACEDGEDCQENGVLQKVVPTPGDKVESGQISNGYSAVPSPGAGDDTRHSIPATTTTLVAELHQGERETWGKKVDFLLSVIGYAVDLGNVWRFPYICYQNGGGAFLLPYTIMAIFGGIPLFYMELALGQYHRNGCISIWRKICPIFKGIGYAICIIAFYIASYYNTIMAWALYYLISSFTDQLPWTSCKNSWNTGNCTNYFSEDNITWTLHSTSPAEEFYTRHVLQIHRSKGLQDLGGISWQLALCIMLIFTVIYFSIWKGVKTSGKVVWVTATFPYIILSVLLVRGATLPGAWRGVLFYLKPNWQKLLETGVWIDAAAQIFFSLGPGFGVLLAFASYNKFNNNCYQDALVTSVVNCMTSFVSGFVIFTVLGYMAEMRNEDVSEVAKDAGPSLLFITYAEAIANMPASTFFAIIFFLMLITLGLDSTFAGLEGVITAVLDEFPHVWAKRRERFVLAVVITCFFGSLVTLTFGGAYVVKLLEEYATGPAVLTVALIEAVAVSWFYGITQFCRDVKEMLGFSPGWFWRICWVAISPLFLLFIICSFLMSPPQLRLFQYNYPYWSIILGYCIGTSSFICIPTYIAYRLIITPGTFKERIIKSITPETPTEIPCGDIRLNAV
T2 sequence (P25103 whole entry): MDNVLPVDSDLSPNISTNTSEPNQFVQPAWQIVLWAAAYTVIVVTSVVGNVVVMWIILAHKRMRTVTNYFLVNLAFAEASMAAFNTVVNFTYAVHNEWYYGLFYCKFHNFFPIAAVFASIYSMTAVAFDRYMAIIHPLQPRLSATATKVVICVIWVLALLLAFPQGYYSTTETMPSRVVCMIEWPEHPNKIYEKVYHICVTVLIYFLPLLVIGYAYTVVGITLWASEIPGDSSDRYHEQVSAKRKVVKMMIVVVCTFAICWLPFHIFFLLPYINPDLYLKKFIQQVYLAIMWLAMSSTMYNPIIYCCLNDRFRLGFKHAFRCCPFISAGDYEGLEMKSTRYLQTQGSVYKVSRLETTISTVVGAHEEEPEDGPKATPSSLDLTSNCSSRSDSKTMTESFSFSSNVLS

Row | IC50 [1] | IC50 [2] | Structure (SMILES)
1 | 1 to 100 nM | 1 to 100 nM | NCCC(O)(COCc1cc(Br)cc(Br)c1)c1ccccc1 (stereo not shown) [Example 68, 1-(3,5-dibromobenzyloxy)-4-amino-2-phenylbutan-2-ol]
2 | > 300 nM | 100 to 300 nM | NCCC(O)(COCc1cc(C(F)(F)F)cc(C(F)(F)F)c1)c1ccccc1 (racemic) [Example 7, 1-(3,5-bis(trifluoromethyl)benzyloxy)-4-amino-2-phenylbutan-2-ol]
3 |  | 100 to 300 nM | NCCC(O)(CNCc1cc(C(F)(F)F)cc(C(F)(F)F)c1)c1ccccc1 (stereo not shown) [Example 81]
4 | 1 to 100 nM | 100 to 300 nM | CN(C)CCC(C)(COCc1cc(C(F)(F)F)cc(C(F)(F)F)c1)c1ccccc1 (stereo not shown) [Example 76, 1-(3,5-bis(trifluoromethyl)benzyloxy)-4-dimethylamino-2-methyl-2-phenylbutane]
5 | 1 to 100 nM | 100 to 300 nM | COc1ccc(C(O)(CCN)COCc2cc(C(F)(F)F)cc(C(F)(F)F)c2)cc1OC (stereo not shown) [Example 39, 1-(3,5-bis(trifluoromethyl)benzyloxy)-4-amino-2-(3,4-dimethoxyphenyl)butan-2-ol]
6 | 1 to 100 nM | > 300 nM | NCCC(O)(COCc1ccc(Cl)cc1)c1ccccc1 (stereo not shown) [Example 70, 1-(4-chlorobenzyloxy)-4-amino-2-phenylbutan-2-ol]
7 | 100 to 300 nM | > 300 nM | CCCc1ccc(C(O)(CCN)COCc2cc(C(F)(F)F)cc(C(F)(F)F)c2)cc1 (stereo not shown) [Example 35, 1-(3,5-bis(trifluoromethyl)benzyloxy)-4-amino-2-(4-propylphenyl)butan-2-ol]
8 | 100 to 300 nM | 1 to 100 nM | NCCC(O)(COCc1cc(C(F)(F)F)cc(C(F)(F)F)c1)c1ccc(Cl)c(Cl)c1 (stereo not shown) [Example 10, 1-(3,5-bis(trifluoromethyl)benzyloxy)-4-amino-2-(3,4-dichlorophenyl)butan-2-ol]
9 | 1 to 100 nM | 1 to 100 nM | Cc1cc(Cl)ccc1C(O)(CCN)COCc1cc(C(F)(F)F)cc(C(F)(F)F)c1 (stereo not shown) [Example 40, 1-(3,5-bis(trifluoromethyl)benzyloxy)-4-amino-2-(4-chloro-2-methylphenyl)butan-2-ol]
10 | 1 to 100 nM | 1 to 100 nM | Cc1ccc(C)c(C(O)(CCN)COCc2cc(C(F)(F)F)cc(C(F)(F)F)c2)c1 (stereo not shown) [Example 37, 1-(3,5-bis(trifluoromethyl)benzyloxy)-4-amino-2-(2,5-dimethylphenyl)butan-2-ol]
11 | 1 to 100 nM | 1 to 100 nM | Cc1ccc(C(O)(CCN)COCc2cc(C(F)(F)F)cc(C(F)(F)F)c2)cc1C (stereo not shown) [Example 32, 1-(3,5-bis(trifluoromethyl)benzyloxy)-4-amino-2-(3,4-dimethylphenyl)butan-2-ol]
12 | 100 to 300 nM | 100 to 300 nM | NCCC(O)(COCc1cccc(C(F)(F)F)c1)c1ccccc1 (stereo not shown) [Example 55, 1-(3-(trifluoromethyl)benzyloxy)-4-amino-2-phenylbutan-2-ol]
13 | 100 to 300 nM | > 300 nM | NCCC(O)(COCc1ccc(C(F)(F)F)cc1)c1ccccc1 (stereo not shown) [Example 56, 1-(4-(trifluoromethyl)benzyloxy)-4-amino-2-phenylbutan-2-ol]
14 | 1 to 100 nM | 1 to 100 nM | Cc1ccc(C(O)(CCN)COCc2cc(C(F)(F)F)cc(C(F)(F)F)c2)cc1F (stereo not shown) [Example 33, 1-(3,5-bis(trifluoromethyl)benzyloxy)-4-amino-2-(3-fluoro-4-methylphenyl)butan-2-ol]
15 | 1 to 100 nM | 1 to 100 nM | CN(C)CCC(COCc1cc(C(F)(F)F)cc(C(F)(F)F)c1)c1ccccc1 (stereo not shown) [Example 73, 1-(3,5-bis(trifluoromethyl)benzyloxy)-4-dimethylamino-2-phenylbutane]
16 | 1 to 100 nM | > 300 nM | NCCC(O)(COCc1ccccc1C(F)(F)F)c1ccccc1 (stereo not shown) [Example 54, 1-(2-(trifluoromethyl)benzyloxy)-4-amino-2-phenylbutan-2-ol]
17 | 1 to 100 nM | 1 to 100 nM | Cc1ccc(C(O)(CCN)COCc2cc(C(F)(F)F)cc(C(F)(F)F)c2)cc1 (stereo not shown) [Example 9, 1-(3,5-bis(trifluoromethyl)benzyloxy)-4-amino-2-p-tolylbutan-2-ol]
18 | 100 to 300 nM | > 300 nM | NCCC(O)(COCc1ccc(Br)cc1)c1ccccc1 (stereo not shown) [Example 66, 1-(4-bromobenzyloxy)-4-amino-2-phenylbutan-2-ol]
19 | 1 to 100 nM | 100 to 300 nM | CCc1ccc(C(O)(CCN)COCc2cc(C(F)(F)F)cc(C(F)(F)F)c2)cc1 (stereo not shown) [Example 38, 1-(3,5-bis(trifluoromethyl)benzyloxy)-4-amino-2-(4-ethylphenyl)butan-2-ol]
20 | 1 to 100 nM | 1 to 100 nM | Cc1cc(C(O)(CCN)COCc2cc(C(F)(F)F)cc(C(F)(F)F)c2)ccc1F (stereo not shown) [Example 13, 1-(3,5-bis(trifluoromethyl)benzyloxy)-4-amino-2-(4-fluoro-3-methylphenyl)butan-2-ol]
21 | > 300 nM | > 300 nM | CN(C)c1ccc(C(O)(CCN)COCc2cc(C(F)(F)F)cc(C(F)(F)F)c2)cc1 (stereo not shown) [Example 16, 1-(3,5-bis(trifluoromethyl)benzyloxy)-4-amino-2-(4-(dimethylamino)phenyl)butan-2-ol]
22 | 1 to 100 nM | 1 to 100 nM | NCCC(O)(COCc1cc(C(F)(F)F)cc(C(F)(F)F)c1)c1ccc(F)c(F)c1 (stereo not shown) [Example 15, 1-(3,5-bis(trifluoromethyl)benzyloxy)-4-amino-2-(3,4-difluorophenyl)butan-2-ol]
23 | 1 to 100 nM | 1 to 100 nM | COc1cccc(C(O)(CCN)COCc2cc(C(F)(F)F)cc(C(F)(F)F)c2)c1 (stereo not shown) [Example 14, 1-(3,5-bis(trifluoromethyl)benzyloxy)-4-amino-2-(3-methoxyphenyl)butan-2-ol]
24 | 1 to 100 nM | 1 to 100 nM | Cc1cccc(C(O)(CCN)COCc2cc(C(F)(F)F)cc(C(F)(F)F)c2)c1C (stereo not shown) [Example 26, 1-(3,5-bis(trifluoromethyl)benzyloxy)-4-amino-2-(2,3-dimethylphenyl)butan-2-ol]
25 | 1 to 100 nM | 1 to 100 nM | CN(C)CC(C)(COCc1cc(C(F)(F)F)cc(C(F)(F)F)c1)c1ccccc1 (stereo not shown) [Example 79, 1-(3,5-bis(trifluoromethyl)benzyloxy)-3-dimethylamino-2-methyl-2-phenylpropane]
26 | 100 to 300 nM | 100 to 300 nM | CC(CN)(COCc1cc(C(F)(F)F)cc(C(F)(F)F)c1)c1ccccc1 (stereo not shown) [Example 77, 1-(3,5-bis(trifluoromethyl)benzyloxy)-3-amino-2-methyl-2-phenylpropane]
27 | > 300 nM | > 300 nM | NCCC(O)(COCc1ccc(OC(F)(F)F)cc1)c1ccccc1 (stereo not shown) [Example 49, 1-(4-(trifluoromethoxy)benzyloxy)-4-amino-2-phenylbutan-2-ol]
28 | 1 to 100 nM | 1 to 100 nM | Cc1ccc(C(O)(CCN)COCc2cc(C(F)(F)F)cc(C(F)(F)F)c2)c(C)c1 (stereo not shown) [Example 30, 1-(3,5-bis(trifluoromethyl)benzyloxy)-4-amino-2-(2,4-dimethylphenyl)butan-2-ol]
